Read-outs that look alike come from different tables or passages of the source.
Key:
pituitary TRH-R = details: Neuroendocrinology 32:310 (1981); cited from earlier work
[1] = target: T1, TRH receptor (TRH-R) expressed in Xenopus oocytes (Mus musculus, UniProt P21761); assay: Competition for [3H]methylTRH binding to intact Xenopus oocytes injected with RNA transcribed in vitro from pBSmTRHR
T1 construct: injected with RNA transcribed in vitro from the plasmid containing the TRH-R cDNA (pBSmTRHR); expressed in transfected cells; host or cells: Xenopus laevis oocytes injected with in vitro transcribed RNA from pBSmTRHR
T1 sequence (P21761 1-393): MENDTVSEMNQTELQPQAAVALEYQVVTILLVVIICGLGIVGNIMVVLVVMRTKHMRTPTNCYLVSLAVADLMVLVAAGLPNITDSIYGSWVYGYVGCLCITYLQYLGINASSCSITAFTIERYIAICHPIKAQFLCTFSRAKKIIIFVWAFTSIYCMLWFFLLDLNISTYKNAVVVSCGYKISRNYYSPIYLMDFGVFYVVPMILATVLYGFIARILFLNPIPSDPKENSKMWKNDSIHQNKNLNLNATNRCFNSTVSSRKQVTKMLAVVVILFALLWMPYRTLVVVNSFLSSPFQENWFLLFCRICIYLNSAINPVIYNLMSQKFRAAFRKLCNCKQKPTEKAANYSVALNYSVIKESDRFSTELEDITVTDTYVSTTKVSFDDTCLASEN
Description: FIG. 2 depicts TRH (the filled squares) and chlordiazepoxide (the unfilled circles) competion for the binding of [^3 H]methylTRH to oocytes expressing TRH receptors 3 days after injection of 5 ng of in vitro transcribed RNA. The results are presented in this figure as mean ± S.E. of duplicate determinations.
Xenopus oocytes were injected with 5 ng of sense RNA transcripts ans assayed for specific binding of TRH and electrophysiological responses to TRH. Binding to intact oocytes was performed as described in the literature [see Molecular Endocrinology 3:9070 (1989)], using 2 nM [^3 H]methylTRH as the labeled ligand, and unlabeled TRH and chlordiazepoxide as competitive inhibitors.
Five to 10 oocytes were incubated at 4° C. in 0.2 ml OR-2 containing 40 nm [^3 H]methylTRH without or with 1 μl unlabeled TRH for up to 3 hours. Oocytes were washed 7 times with 4 ml ice-cold OR-2 solution and radioactivity measured by liquid scintillation counting. Specific binding was calculated by subtracting radioactivity bound in the presence from that in the absence of unlabeled TRH. Nonspecific binding was between 30 and 45% of total binding.

[2] = target: T2, TRH-R expressed in Xenopus oocytes (Mus musculus, UniProt P21761); assay: Electrophysiological response to TRH in voltage-clamped Xenopus oocytes injected with RNA transcribed from the TRH-R cDNA; format: cell-based; details: 3 days after injection of 5 ng RNA
T2 construct: injected with RNA transcribed in vitro from the plasmid containing the TRH-R cDNA (pBSmTRHR); expressed in transfected cells; host or cells: Xenopus laevis oocytes injected with in vitro transcribed RNA from pBSmTRHR
T2 sequence (P21761 1-393): T1 sequence (P21761 1-393)
Description: FIG. 3 more specifically depicts the concentration-response relationship of Xenopus oocytes 3 days following injection of 5 ng of in vitro transcribed RNA. In FIG. 3, the results are presented from two experiments with N≥6.
A single oocyte, in a 0.4 ml perfusion chamber, was impaled with two standard glass electrodes filed with 3M KCl and maintained under voltage clamp using a Dagan 8500 intracellular clamp. Drugs were included in the perfusate and applied at a flow rate of 8 ml/min. The apparent latency is the time between achieving greater than 80% of the perfusate concentration in the perfusion chamber (5.5 sec after switching to TRH) and the initial deflection of the pen on the chart recorder due to membrane depolarization.
RNA was injected (25-50 nl) at the equator of oocytes, and responses were tested 24 to 72 hours after injection.
This dose dependency is the same as that observed in GH3 cells when rapid effects of TRH, such as generation of inositol 1,4,5-triphosphate or elevation of cytoplasmic calcium, were measured [see J Biol Chem 261:2712 (1986) and J Biol Chem 259:5827 (1984)].

[3] = target: T3, TRH-R expressed in COS-1 cells (Mus musculus, UniProt P21761); assay: Competition for [3H]methylTRH binding in COS-1 cells transfected with pCDM8mTRHR; details: 48 hours, read-out: K3 (Ki) for displacement of [3H]methylTRH binding
T3 construct: the entire TRH-R cDNA, according to the present invention, contained in a Not I/HindIII fragment was cloned directly into the eukaryotic expression vector pCDM8; expressed in transfected cells; host or cells: COS-1 cells transfected with pCDM8mTRHR
T3 sequence (P21761 1-393): T1 sequence (P21761 1-393)
Description: In FIGS. 6 and 7, COS-1 cells were transfected with the TRH-R cDNA according to the present invention, in the mammalian expression vector pCDM8 (pCDM8m TRHR) and assayed for binding and responses 48 hours later. Specifically, FIG. 6, depicts the TRH (filled squares) and chlordiazepoxide (unfilled circles) competition for the binding of [^3 H]methylTRH. COS-1 cells transfected with pCDM8mTRHR were assayed for the binding of [^3 H]methylTRH in the presence of increasing amounts of either unlabeled TRH or chlordiazepoxide. Results are presented as mean ± range of data from duplicate determinations in one of two similar experiments. In FIG. 7, COS-1 cells transfected with pCDM8mTRHR were labeled with myo-[^3 H]inositol for 48 hours, washed, and tested for dose-dependent stimulation of inositol phosphate production by TRH. The results are presented as mean ± S.D. of triplicate determinations from one of two similar experiments. […]
No specific binding or TRH stimulated inositol phosphate formation was detectable in untransfected COS-1 cells or cells transfected with pCDM8 alone. As depicted in FIG. 6, [^3 H]methylTRH binding and displacement by TRH and chlordiazepoxide were measured. […]

[4] = target: T3, TRH-R expressed in COS-1 cells; assay: TRH-stimulated inositol phosphate formation in COS-1 cells transfected with pCDM8mTRHR; format: cell-based; details: labeled with myo-[3H]inositol 48 hours
Description: In FIGS. 6 and 7, COS-1 cells were transfected with the TRH-R cDNA according to the present invention, in the mammalian expression vector pCDM8 (pCDM8m TRHR) and assayed for binding and responses 48 hours later. […] In FIG. 7, COS-1 cells transfected with pCDM8mTRHR were labeled with myo-[^3 H]inositol for 48 hours, washed, and tested for dose-dependent stimulation of inositol phosphate production by TRH. The results are presented as mean ± S.D. of triplicate determinations from one of two similar experiments.
COS-1 cells were transfected using the DEAE dextran method, and after 48 to 72 hours the cells were assayed for [^3 H]methylTRH binding and TRH stimulated inositol phosphate formation.
On the day prior to transfection, 35 mm, 6 well tissue culture plates were seeded with 6×10^5 in DMEM with 10% FCS; cells should be just subconfluent for transfection. A transfection cocktail was prepared: supercoiled plasmid DNA (ethanol precipitated if necessary) was resuspended in 0.3 ml PBS, and then vortexed. 0.1 ml DEAE-dextran was added to bring the final concentration to 0.5 mg/ml, and the solution mixed thoroughly. The tissue culture medium was aspirated from the cell cultures and the COS cells were rinsed twice with 2 ml of PBS warmed to 37° C. […]

| Compound | affinity relative to TRH for the pituitary TRH-R (higher) (pituitary TRH-R) | Ki [1] | lowest TRH concentration that evoked an electrophysiological response [2] | EC50 ([2]; read-out: TRH concentration giving half-maximal electrophysiological response) | EC100 ([2]; read-out: TRH concentration giving maximum electrophysiological response) | Ki [3] | EC50 [4] | Ki ([1]; Xenopus oocytes, 3 days after injection of 5 ng in vitro transcribed RNA, calculated, approximate, read-out: apparent inhibition constant (Ki) for inhibition of [3H]methylTRH binding) |
| --- | --- | --- | --- | --- | --- | --- | --- | --- |
| [^3 H]methylTRH | 10 fold | – | – | – | – | – | – | – |
| NC(=O)[C@@H]1CCCN1C(=O)[C@H](Cc1cnc[nH]1)NC(=O)[C@@H]1CCC(=O)N1 [TRH, thyrotropin releasing hormone] | – | ~30 nM | 1 nM | 10 nM | 0.1 µM | 10 nM | ~10 nM | – |
| CNC1=Nc2ccc(Cl)cc2C(c2ccccc2)=[N+]([O-])C1 [chlordiazepoxide] | – | – | – | – | – | 20000 nM | – | ~3000 nM |
